Data reported in PubChem BioAssay (NCI).
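1) Cells in 96-well plates. 2) Compound, 48 h, 5 concentrations. 3) Linear interpolation between surrounding doses. 4) Unreached endpoint = highest concentration. TGI: total growth inhibition.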

How the values were obtained:
Experiment in all cases: growth of human tumour cells (NCI), 48 h
A549 NSCLC = tested on: A549 NSCLC
CAKI-1 renal = tested on: CAKI-1 renal
COLO 205 colon = tested on: COLO 205 colon
MDA-MB-231 breast = tested on: MDA-MB-231 breast
MDA-MB-435 = tested on: MDA-MB-435
RXF 393 renal = tested on: RXF 393 renal
SF-268 CNS = tested on: SF-268 CNS
SK-MEL-2 melanoma = tested on: SK-MEL-2 melanoma
SNB-19 CNS = tested on: SNB-19 CNS
SNB-75 CNS = tested on: SNB-75 CNS
SR leukemia = tested on: SR leukemia
UACC-257 melanoma = tested on: UACC-257 melanoma

Compound	TGI (A549 NSCLC)	TGI (CAKI-1 renal)	TGI (COLO 205 colon)	TGI (MDA-MB-231 breast)	TGI (MDA-MB-435)	TGI (RXF 393 renal)	TGI (SF-268 CNS)	TGI (SK-MEL-2 melanoma)	TGI (SNB-19 CNS)	TGI (SNB-75 CNS)	TGI (SR leukemia)	TGI (UACC-257 melanoma)
CC1CC(C#N)=C2NCCCCN2C1=O (configuration not stated)	> 100 µM	> 100 µM	> 100 µM	> 100 µM	> 100 µM	> 100 µM	> 100 µM	> 100 µM	> 100 µM	> 100 µM	> 100 µM	> 100 µM
CN(O)C(=O)Cc1ccc(OCc2cccc(Cl)c2)cc1	> 100 µM	> 100 µM	> 100 µM	> 100 µM	> 100 µM	> 100 µM	> 100 µM	> 100 µM	> 100 µM	> 100 µM	> 100 µM	> 100 µM
CCN(CCCN(CC)C(=O)N[C@@H](Cc1ccccc1)C(=O)NC)C(=O)N[C@@H](Cc1ccccc1)C(=O)NC	> 100 µM	> 100 µM	> 100 µM	> 100 µM	> 100 µM	> 100 µM	> 100 µM	> 100 µM	> 100 µM		> 100 µM	> 100 µM
CCOP(=O)(OCC)/C(F)=C/c1ccccc1	> 100 µM	> 100 µM	> 100 µM	> 100 µM	> 100 µM	> 100 µM	> 100 µM	> 100 µM	> 100 µM	> 100 µM	> 100 µM	> 100 µM
O=C(O)c1ccc(NS(=O)(=O)Cc2ccccc2)cc1	> 100 µM	> 100 µM	> 100 µM	> 100 µM	> 100 µM	> 100 µM	> 100 µM	> 100 µM	> 100 µM	> 100 µM	> 100 µM	> 100 µM
O=C1/C(=C/c2ccc(F)cc2)CNC/C1=C\c1ccc(F)cc1	18.1 µM	3.4 µM	3.42 µM	13.5 µM	7.51 µM	3.41 µM	4.06 µM	29 µM	6.2 µM	18.3 µM	> 100 µM	28 µM
O=C1OC[C@@H]2Cc3c([nH]c4ccccc34)[C@@H](c3ccc(O)cc3)N12	75.8 µM	97.5 µM	40.9 µM	> 83.4 µM	68.2 µM	64.3 µM	> 100 µM	67.6 µM	> 100 µM	69.4 µM	> 87.4 µM	72.2 µM
CCN(CC)CCCn1c(=O)c2cccnc2n2c3c(=O)n(C)c(=O)n(C)c3nc12	> 100 µM	> 100 µM	> 100 µM	> 100 µM	> 100 µM	> 100 µM	> 100 µM	> 100 µM	> 100 µM	> 100 µM	> 100 µM	> 100 µM
CC1=C2c3ccccc3N(C(=O)/C=C/C(=O)O)[C@H]2[C@H]2C(=O)OC(=O)[C@H]2C1	> 10 µM	> 10 µM	> 10 µM	> 10 µM	> 10 µM	> 10 µM	> 10 µM	> 10 µM	> 10 µM	> 10 µM	> 10 µM	
Cc1nc(Cl)c(CBr)c(Cl)n1	12.4 µM	4.01 µM	3.15 µM	3.67 µM	3.3 µM	5.03 µM	8.85 µM	4.68 µM	11.2 µM	2.26 µM	0.554 µM	3.37 µM
CC1=CC(=O)N(n2c(C)n[nH]c2=O)C1=O	> 100 µM	> 100 µM	> 100 µM	> 100 µM	> 100 µM	> 100 µM	> 100 µM	> 100 µM	> 100 µM		> 100 µM	> 100 µM
O=C1/C(=C/c2ccc(Br)s2)NC(=S)N1CN1CCOCC1		66.5 µM	87.9 µM	> 100 µM	> 100 µM	59.7 µM	> 100 µM	> 100 µM	> 100 µM	> 100 µM	55.2 µM	> 100 µM
Cc1nc2ccc([N+](=O)[O-])cc2c(=O)n1C(=S)Nc1cccc(Cl)c1	92 µM	56 µM	31.6 µM	37.1 µM	41.2 µM	40 µM	42.9 µM	23.9 µM	> 100 µM	40.8 µM	> 100 µM	41.2 µM
CC1=CC=CC(C)(C)CC1(O[Si](C)(C)C)C(F)(F)F (configuration not stated)	> 100 µM	> 100 µM	> 100 µM	> 100 µM	> 100 µM	> 100 µM	> 100 µM	> 100 µM	> 100 µM	> 100 µM	> 100 µM	> 100 µM
COc1ccc2c(c1)C(=O)c1ccccc1C2	> 100 µM	> 100 µM	> 100 µM	76.3 µM	> 100 µM	28.4 µM	> 100 µM	> 100 µM	> 100 µM	63.5 µM	> 100 µM	> 100 µM
CN1C(=O)CN(NC(=O)C2=C(O)c3ccc(Br)cc3S(=O)(=O)N2)C1=S	> 100 µM	> 100 µM	> 100 µM	> 100 µM	> 100 µM	> 100 µM	> 100 µM	> 100 µM	> 100 µM		> 100 µM	> 100 µM
CCOC(=O)C1CC(O)C(=O)N1C (configuration not stated)	> 100 µM	> 100 µM	> 100 µM	> 100 µM	> 100 µM	> 100 µM		> 100 µM	> 100 µM		> 100 µM	> 100 µM
CCn1c(=O)c2c3cc(O)ccc3oc2c2ccc(O)cc21	86.9 µM	> 100 µM	43.9 µM	> 100 µM	> 100 µM	> 100 µM	> 100 µM		> 100 µM	> 100 µM	63.5 µM	> 100 µM
N#Cc1c2c(c(Nc3ccc(F)cc3)n3c1nc1ccccc13)CCC2	22.5 µM	3.5 µM	14.1 µM	11.3 µM	11 µM	7.9 µM	18.1 µM	40.6 µM	22.1 µM	16.7 µM	> 100 µM	24.1 µM
CCOC(=O)c1c(N)n(-c2ccccc2)c(=S)n(-c2ccccc2)c1=O	> 100 µM		> 100 µM	> 100 µM	> 100 µM	> 100 µM	> 100 µM	> 100 µM	> 100 µM	> 100 µM	> 100 µM	> 100 µM
CO/N=C1/c2sccc2[C@H](NC(=O)CNC(=O)OC(C)(C)C)[C@@H]1O	> 100 µM	> 100 µM	> 100 µM	> 100 µM	> 100 µM	> 100 µM	> 100 µM	> 100 µM	> 100 µM	> 100 µM	> 100 µM	> 100 µM
NCCCC(N)C(=O)O (configuration not stated)	> 100 µM	> 100 µM	> 100 µM	> 100 µM	> 100 µM	> 100 µM	> 100 µM	> 100 µM	> 100 µM	> 100 µM	> 100 µM	> 100 µM
COc1cccc(-c2nc(-c3cnccn3)n(Cc3ccccc3)n2)c1	> 100 µM		> 100 µM	> 100 µM	> 100 µM	64 µM	> 100 µM		> 100 µM	> 100 µM	> 100 µM	> 100 µM
C=CC/C(C(=O)OC)=C(/C(=O)OC)N(CCC)CCC	> 100 µM	> 100 µM	> 100 µM	> 100 µM	> 100 µM	> 100 µM	> 100 µM	> 100 µM	> 100 µM	> 100 µM	55.3 µM	> 100 µM
CN1CN(c2ccccc2)C2(CCN(CCCC3(c4cccs4)OCCO3)CC2)C1=O	> 100 µM	> 100 µM	> 100 µM	> 100 µM	> 100 µM	> 100 µM	> 100 µM	> 100 µM	> 100 µM	> 100 µM	> 100 µM	> 100 µM
COC(c1ccc(C(C)(C)C)cc1)(c1ccc(C(C)(C)C)cc1)c1cc(C(O)(c2cc(C(OC)(c3ccc(C(C)(C)C)cc3)c3ccc(C(C)(C)C)cc3)c(C)cc2C)c2cc(C(OC)(c3ccc(C(C)(C)C)cc3)c3ccc(C(C)(C)C)cc3)c(C)cc2C)c(C)cc1C	> 100 µM	> 100 µM	> 100 µM	> 100 µM	> 100 µM	> 100 µM	> 100 µM	> 100 µM		> 100 µM	> 100 µM	> 100 µM
O=c1nc2c(c(-c3cccc(Cl)c3)[nH]1)COC/C2=C\c1cccc(Cl)c1		> 100 µM	> 100 µM	> 100 µM	> 100 µM	> 100 µM	> 100 µM	> 100 µM	> 100 µM	> 100 µM	> 100 µM	> 100 µM
CCOC(=O)C(=O)N1C(C)=C(C(=O)OCC)CC(C(=O)OCC)=C1C	> 100 µM	> 100 µM	> 100 µM	> 100 µM	> 100 µM	> 100 µM		> 100 µM	> 100 µM	> 100 µM	> 100 µM	> 100 µM
